Here are results for 1 molecule from ChEMBL document CHEMBL3044793, “Antihepatotoxic activity of ferolactone, a new furanocoumarin from Feronia limonia” (2012).

Each structure is given as a SMILES string. The source made the active and inactive calls. The rule behind the calls is not given here.

The subject of experiment [1] is Rattus norvegicus. Kind of experiment: Hepatoprotective activity against CCl4-induced toxicity in Rattus norvegicus Wistar albino (rat) assessed as normal portal triad at 50 mg/kg, po administered QD for 6 days measured on day 8 by hematoxylin and eosin staining-based microscopic analysis. It counts as functional, organism-based. Also noted: dose 50 mg/kg.
For experiment [2], the system named is Rattus norvegicus. Kind of experiment: Hepatoprotective activity in Rattus norvegicus Wistar albino (rat) assessed as reduction in CCl4-induced increase in SGOT level at 50 mg/kg, po administered QD for 6 days measured on day 8 by colorimetric analysis relative to ocntrol. The format is functional. Also noted: scale not given: the % may be the effect or the level left.

The subject of experiment [3] is Rattus norvegicus. Kind of experiment: Hepatoprotective activity in Rattus norvegicus Wistar albino (rat) assessed as reduction in CCl4-induced necrosis at 50 mg/kg, po administered QD for 6 days measured on day 8 by hematoxylin and eosin staining-based microscopic analysis. Also noted: dose 50 mg/kg. It counts as functional, organism-based.
The subject of experiment [4] is Rattus norvegicus. Kind of experiment: Hepatoprotective activity against CCl4-induced toxicity in Rattus norvegicus Wistar albino (rat) assessed as clear central vein at 50 mg/kg, po administered QD for 6 days measured on day 8 by hematoxylin and eosin staining-based microscopic analysis. Also noted: dose 50 mg/kg. The format is functional, organism-based.
The subject of experiment [5] is Rattus norvegicus. Kind of experiment: Hepatoprotective activity against CCl4-induced toxicity in Rattus norvegicus Wistar albino (rat) assessed as total albumin level at 50 mg/kg, po administered QD for 6 days measured on day 8 (reference value: 2.33 +/- 0.18 g/dl). It counts as functional.
Experiment [6] relates to Rattus norvegicus. Kind of experiment: Hepatoprotective activity in Rattus norvegicus Wistar albino (rat) assessed as reduction in CCl4-induced hepatocyte injury at 50 mg/kg, po administered QD for 6 days measured on day 8 by hematoxylin and eosin staining-based microscopic analysis. It counts as functional, organism-based. Also noted: dose 50 mg/kg.
Experiment [7] concerns Rattus norvegicus. Kind of experiment: Hepatoprotective activity in Rattus norvegicus Wistar albino (rat) assessed as reduction in CCl4-induced increase in SGPT level at 50 mg/kg, po administered QD for 6 days measured on day 8 by colorimetric analysis relative to control. Also noted: scale not given: the % may be the effect or the level left. The format is functional.
The subject of experiment [8] is Rattus norvegicus. Kind of experiment: Hepatoprotective activity in Rattus norvegicus Wistar albino (rat) assessed as reduction in CCl4-induced fatty accumulation at 50 mg/kg, po administered QD for 6 days measured on day 8 by hematoxylin and eosin staining-based microscopic analysis. The format is functional, organism-based. Details: dose 50 mg/kg.
Experiment [9] has as its system Rattus norvegicus. Kind of experiment: Hepatoprotective activity in Rattus norvegicus Wistar albino (rat) assessed as reduction in CCl4-induced increase in alkaline phosphatase level at 50 mg/kg, po administered QD for 6 days measured on day 8 relative to control. It counts as functional. Also noted: scale not given: the % may be the effect or the level left.
In experiment [10] the test system is Rattus norvegicus. Kind of experiment: Hepatoprotective activity in Rattus norvegicus Wistar albino (rat) assessed as reduction in CCl4-induced lymphocytic infiltration at 50 mg/kg, po administered QD for 6 days measured on day 8 by hematoxylin and eosin staining-based microscopic analysis. Also noted: dose 50 mg/kg. The format is functional, organism-based.

The subject of experiment [11] is Rattus norvegicus. Kind of experiment: Hepatoprotective activity against CCl4-induced toxicity in Rattus norvegicus Wistar albino (rat) assessed as normal parenchyma at 50 mg/kg, po administered QD for 6 days measured on day 8 by hematoxylin and eosin staining-based microscopic analysis. The format is functional, organism-based. Also noted: dose 50 mg/kg.
The subject of experiment [12] is Rattus norvegicus. Kind of experiment: Hepatoprotective activity in Rattus norvegicus Wistar albino (rat) assessed as increase in CCl4-induced reduction in total protein level at 50 mg/kg, po administered QD for 6 days measured on day 8 relative to control. The format is functional. Details: scale not given: the % may be the effect or the level left.

`COc1c2ccoc2c(OC/C=C(\C)CC2C=C(C)C(=O)O2)c2oc(=O)ccc12` (configuration not stated) [FEROLACTONE]: the result in the experiment on Rattus norvegicus [1], in the experiment on Rattus norvegicus [3], in the experiment on Rattus norvegicus [4], in the experiment on Rattus norvegicus [6], in the experiment on Rattus norvegicus [8] and in the experiment with Rattus norvegicus [10] was Active. Besides, the outcome with Rattus norvegicus [11] was Active. Besides, the Activity in the experiment on Rattus norvegicus [2] is 43.44%; in the experiment on Rattus norvegicus [5], 3.44 g/dL; with Rattus norvegicus [7] it was 39.63%; in the experiment on Rattus norvegicus [9], 41.16%; with Rattus norvegicus [12] it was 36.15%.
